# From paper PMC8504577, “Evaluation of a Clinically Relevant Drug–Drug Interaction Between Rosuvastatin and Clopidogrel and the Risk of Hepatotoxicity” (Frontiers in Pharmacology, 2021)
# Where two headings read alike, the source gives them in different places.
# How the values were obtained:
# [1] = human; ref Ayalasomayajula et al., 2007; Itkonen et al., 2015; cited from earlier work
# [2] = for Imax,u, unbound steady-state plasma peak concentration: fu×I1
# OATP1B1 [3] = details: ref Tamraz et al. (2013), cited from earlier work
# [4] = set-up: method as in Tornio et al. (2014); details: ref Tornio et al. (2014); cited from earlier work
# [5] = cited from earlier work
# [6] = system: human primary hepatocytes; assay: Cytotoxicity (MTT, AST, LDH) in cryopreserved human hepatocytes; type: cell-based; details: 24 and 96 h incubation
# Protocol: Cytotoxicity was determined with MTT assay in cryopreserved human hepatocytes. Thawing and plating of cryopreserved hepatocytes were carried out according to the manufacturer’s protocol. […] 11 μL of 5 mg/ml MTT was added to each well of the plate, and then the plate was incubated at 37°C for 3–4 h. After the medium was aspirated, 150 μL of DMSO was added to dissolve the formazan. The absorbance at 570 nm was measured and corrected for background absorption at 690 nm using a SpectraMax® i3 plate reader (Molecular Devices, Silicon Valley, CA, United States). AST and LDH levels in the medium of parallel processed plates were measured by commercially available assay kits. […] All experiments were performed in triplicate.
# OATP1B1 [7] = biological target: T1, OATP1B1 (Homo sapiens, UniProt Q9Y6L6); assay: cell-based; details: 100 μM
# T1 sequence (Q9Y6L6 1-691): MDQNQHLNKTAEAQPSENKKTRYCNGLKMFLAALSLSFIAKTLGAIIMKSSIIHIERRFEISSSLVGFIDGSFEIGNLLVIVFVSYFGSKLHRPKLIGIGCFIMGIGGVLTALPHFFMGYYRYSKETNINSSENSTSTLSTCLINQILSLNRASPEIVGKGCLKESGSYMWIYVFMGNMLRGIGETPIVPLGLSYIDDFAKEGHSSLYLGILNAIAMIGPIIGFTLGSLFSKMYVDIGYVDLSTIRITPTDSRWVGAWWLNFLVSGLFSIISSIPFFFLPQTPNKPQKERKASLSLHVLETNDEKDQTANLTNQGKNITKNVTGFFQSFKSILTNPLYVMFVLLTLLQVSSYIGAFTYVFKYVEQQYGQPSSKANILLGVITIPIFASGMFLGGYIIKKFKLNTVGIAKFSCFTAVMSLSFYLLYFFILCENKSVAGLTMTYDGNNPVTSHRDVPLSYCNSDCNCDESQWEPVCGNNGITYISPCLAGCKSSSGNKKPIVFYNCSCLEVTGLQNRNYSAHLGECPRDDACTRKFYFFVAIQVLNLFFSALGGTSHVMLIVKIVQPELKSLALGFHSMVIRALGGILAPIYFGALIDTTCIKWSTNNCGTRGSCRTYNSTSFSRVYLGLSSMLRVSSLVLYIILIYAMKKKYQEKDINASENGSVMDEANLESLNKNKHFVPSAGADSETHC
# Protocol: (§1) The OATP1B1, OATP1B3, and mock cells were cultured in the DMEM medium containing 10% fetal bovine serum, penicillin–streptomycin solution (100 U/mL and 0.1 mg/ml), and 0.5 mg/ml geneticin at 37°C in the presence of 5% CO2. The cells were seeded in a 24-well plate at a density of 4×10^5 cells/well and grown for 80–90% confluence. […] After washing the cells three times with transporter buffer at 4°C, the cells were lysed with liquid nitrogen. The lysates were precipitated with methanol and centrifuged at 12,000 rpm at 4°C for 5 min. The supernatant was analyzed by LC-MS/MS. Protein concentration was determined using the Pierce® BCA Protein Assay Kit. All experiments were performed in triplicate.
# (§2) Phoenix WinNonlin® 7.1 (Pharsight Corporation, Mountain View, CA, United States) was used to calculate the pharmacokinetic parameters by the noncompartmental method. IC50 values were obtained by a computer-generated nonlinear least squares fit using GraphPad Prism 8.1 (GraphPad Software, San Diego, CA, United States). Statistical analysis was performed using SPSS ver. 22.0 (IBM, Chicago, IL, United States). The results are presented as mean ± S.D., unless otherwise stated. After testing for the homogeneity of variance, statistical analysis was performed with a one-way ANOVA followed by the LSD post hoc test or unpaired Student’s t-test. A probability (p) of less than 0.05, 0.01, and 0.001 was considered to be statistically significant, highly significant, and extremely significant, respectively.
# OATP1B3 = biological target: T2, OATP1B3 (Homo sapiens, UniProt Q9NPD5); assay: cell-based; details: 100 μM
# T2 sequence (Q9NPD5 1-702): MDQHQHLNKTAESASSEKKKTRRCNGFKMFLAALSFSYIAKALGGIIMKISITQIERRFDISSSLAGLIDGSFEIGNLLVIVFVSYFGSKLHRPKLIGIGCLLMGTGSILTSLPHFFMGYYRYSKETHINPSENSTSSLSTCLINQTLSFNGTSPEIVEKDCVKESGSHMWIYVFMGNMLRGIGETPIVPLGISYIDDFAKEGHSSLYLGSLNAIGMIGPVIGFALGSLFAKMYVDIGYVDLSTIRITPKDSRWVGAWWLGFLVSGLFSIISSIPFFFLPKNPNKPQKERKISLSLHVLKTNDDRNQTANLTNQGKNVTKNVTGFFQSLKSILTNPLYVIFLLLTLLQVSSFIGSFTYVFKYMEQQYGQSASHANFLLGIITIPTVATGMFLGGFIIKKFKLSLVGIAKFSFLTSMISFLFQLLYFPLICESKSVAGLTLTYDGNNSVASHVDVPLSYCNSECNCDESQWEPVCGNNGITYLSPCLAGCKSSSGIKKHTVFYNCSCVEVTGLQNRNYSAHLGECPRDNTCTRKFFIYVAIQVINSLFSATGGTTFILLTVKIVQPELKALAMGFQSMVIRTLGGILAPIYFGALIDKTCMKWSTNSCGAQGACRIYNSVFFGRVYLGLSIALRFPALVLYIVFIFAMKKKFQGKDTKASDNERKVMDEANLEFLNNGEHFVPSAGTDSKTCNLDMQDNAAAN
# Protocol: as §1, §2
# [8] = Plasma pharmacokinetic study in rats; details: for AUC0–12h: rat plasma
# Protocol: For the plasma pharmacokinetic study, 16 rats were randomly assigned into four groups (n = 4, each group, groups I to IV) and received oral (p.o.) administrations as oral gavage of CP (27 mg/kg) or the same volume of vehicle control for 20 days. Then, the rats were made to fast overnight before dosing but with free access to water. On day 21, rats in group I were treated with a p.o. dose as oral gavage of CP at 27 mg/kg and a single intravenous (i.v.) dose of RSV at 5 mg/kg. Rats in group II were treated with a p.o. dose as oral gavage of vehicle control and a single i.v. dose of RSV at 5 mg/kg. Rats in group Ⅲ were treated with a p.o. dose as oral gavage of CP at 27 mg/kg and a p.o. dose as oral gavage of RSV at 5 mg/kg. Rats in group Ⅳ were treated with a p.o. dose as oral gavage of vehicle control and a p.o. dose as oral gavage of RSV at 5 mg/kg. Blood samples (0.15 ml) were collected at 0, 1, 2, 5, 15, 30, 60, 120, 180, 360, 480, 600, and 720 min after administration of the i.v. dose of the RSV group and at 0, 5, 30, 60, 120, 180, 360, 480, 600, and 720 min for the p.o. dose as oral gavage of the RSV group. After each sampling, a volume of 0.15 ml physiologic saline solutions was administered to sustain isotonic fluid balance. Plasma samples were harvested by using a centrifuge and then stored at −80°C until analysis by LC-MS/MS.
# A Shimadzu LC-30AD liquid chromatography system (Shimadzu, Kyoto, Japan) and an API4000 triple quadruple tandem mass spectrometer (Applied Biosystems/Sciex, Framingham, MA, United States) coupled with an ESI source was used for the LC-MS/MS analysis of in vivo samples. The separation was carried out on an Agilent Extend C18 column (1.8 µm, 4.6 mm × 30 mm, Agilent Technologies). The mobile phase consisting of acetonitrile (A) and water (B: 1 mM ammonium acetate and 1% (V/V) formic acid). […] The flow rate was 1 ml/min and the gradient elution method was as follows: 0.01 min (10% A)-0.4 min (10% A), 0.8 min (95% A)-2.0 min (95% A), and 2.3 min (10% A)-2.5 min (stop).
# as §2
# [9] = substrate cerivastatin, read-out: IC50 OTAP1B1 (cerivastatin, CER, as substrate)
# [10] = substrate estrone sulfate, read-out: IC50 OTAP1B1 (estrone sulfate, ES, as substrate)
structure (smiles),measurement,setting,value
O=C(O)C[C@H](O)C[C@H](O)/C=C/c1c(C2CC2)nc2ccccc2c1-c1ccc(F)cc1 [pitavastatin],Effect of concomitant CP on plasma concentration of the statin,[1],did not change
"O=C(O)[C@H]1O[C@@H](OC(=O)[C@H](c2ccccc2Cl)N2CCc3sccc3C2)[C@H](O)[C@@H](O)[C@@H]1O [Clopidogrel acyl glucuronide, clopidogrel acyl-β-D-glucuronide]","Imax,u, unbound steady-state plasma peak concentration",[2]; 75 mg CP,0.172 µM
same,"Imax,u, unbound steady-state plasma peak concentration",[2]; 300 mg CP,0.477 µM
same,IC50,OATP1B1 [3]; [9],10.9 µM
same,IC50,OATP1B1 [3]; [10],33.5 µM
same,"fu, fraction unbound in human plasma",[4],0.1 [Tornio et al. (2014)]
same,"I1, peak plasma concentration at steady state","[5]; 75 mg CP, ref Itkonen et al. (2015)",1.72 [Itkonen et al. (2015)] μM
same,"I1, peak plasma concentration at steady state","[5]; 300 mg CP, ref Itkonen et al. (2015)",4.77 [Itkonen et al. (2015)] μM
CC/C(=C(\c1ccccc1)c1ccc(OCCN(C)C)cc1)c1ccccc1 [tamoxifen],Cytotoxicity (MTT),[6],Dose-dependent cytotoxicity
"COC(=O)[C@H](c1ccccc1Cl)N1CCC2SC(=O)C=C2C1 (stereo partly drawn) [2-Oxo clopidogrel, 2-oxo clopidogrel]","I1, peak plasma concentration at steady state","[2]; 75 mg CP, calculated from I1 at 300 mg assuming linear pharmacokinetics",0.004 µM
same,"Imax,u, unbound steady-state plasma peak concentration",[2]; 75 mg CP,0.00008 µM
same,"Imax,u, unbound steady-state plasma peak concentration",[2]; 300 mg CP,0.0003 µM
same,IC50,OATP1B1 [3]; [9],8.18 µM
same,IC50,OATP1B1 [3]; [10],8.97 µM
same,"fu, fraction unbound in human plasma",[4],0.02 [Tornio et al. (2014)]
same,"I1, peak plasma concentration at steady state","[5]; 300 mg CP, ref Kim et al. (2016)",0.016 [Kim et al. (2016)] μM
CO[C@H]1/C=C/O[C@@]2(C)Oc3c(C)c(O)c4c(O)c(c(/C=N/N5CCN(C)CC5)c(O)c4c3C2=O)NC(=O)/C(C)=C\C=C\[C@H](C)[C@H](O)[C@@H](C)[C@@H](O)[C@@H](C)[C@H](OC(C)=O)[C@@H]1C [rifampin],Inhibition of RSV uptake by OATP1B1 cells (positive control),OATP1B1 [7],significantly inhibited
same,Inhibition of RSV uptake by OATP1B3 cells (positive control),OATP1B3,significantly inhibited
CC(C)n1c(/C=C/C(O)CC(O)CC(=O)O)c(-c2ccc(F)cc2)c2ccccc21 (stereo not drawn) [fluvastatin],Effect of concomitant CP on plasma concentration of the statin,[1],did not change
"O=C(O)[C@H](c1ccccc1Cl)N1CCc2sccc2C1 [CPC, clopidogrel carboxylic acid]",AUC0–12h,[8]; Group I: single i.v. RSV 5 mg/kg + multiple p.o. CP 27 mg/kg,"299,764 ± 153,504.1 ng×h/mL"
same,AUC0–12h,[8]; Group III: single p.o. RSV 5 mg/kg + multiple p.o. CP 27 mg/kg,"230,181 ± 109,005.9 ng×h/mL"
same,Plasma exposure,"[8]; rats, at 12 h post-dose",remains high
same,"fu, fraction unbound in human plasma",[4],0.06 [Tornio et al. (2014)]
same,Elimination half-life,"[5]; ref Sanofi-Aventis, 2011",8 h
